Format in all cases: functional
One assay has as its system THP-1. Description: Growth inhibition of Homo sapiens (human) THP1 cells at 10 uM after 48 hr by SRB assay. Conditions: THP-1, 48 h, read-out: GI. A general note: In SRB staining, fixed cells bind dye roughly in proportion to their protein.
For the next assay, the system named is COLO 205. Description: Growth inhibition of Homo sapiens (human) COLO205 cells at 10 uM after 48 hr by SRB assay. Conditions: COLO 205, 48 h, read-out: GI.
The subject of another assay is A549. Description: Growth inhibition of Homo sapiens (human) A549 cells at 10 uM after 48 hr by SRB assay. The conditions noted are these: A549, 48 h, read-out: GI.
For another assay, the system named is PC-3. Description: Growth inhibition of Homo sapiens (human) PC3 cells at 10 uM after 48 hr by SRB assay. Conditions: PC-3, 48 h, read-out: GI.
Another assay deals with HeLa. Description: Growth inhibition of Homo sapiens (human) HeLa cells at 10 uM after 48 hr by SRB assay. The conditions noted are these: read-out: GI.
A further assay concerns IMR-32. Description: Growth inhibition of Homo sapiens (human) IMR32 cells at 10 uM after 48 hr by SRB assay. The conditions noted are these: IMR-32, 48 h, read-out: GI.
The test system of the next assay is SW-620. Description: Growth inhibition of Homo sapiens (human) SW620 cells at 10 uM after 48 hr by SRB assay. The conditions noted are these: SW-620, 48 h, read-out: GI.
The test system of the next assay is SiHa. Description: Growth inhibition of Homo sapiens (human) SiHa cells at 10 uM after 48 hr by SRB assay. Conditions: read-out: GI.

On to `C[C@H]1[C@H](C)CC[C@]2(C(=O)OCCCCCCCCBr)CC[C@]3(C)C(=CC[C@@H]4[C@@]5(C)CC[C@H](O)C(C)(C)[C@@H]5CC[C@]43C)[C@H]12` [BROMOOCTYL-3BETA-HYDROXY-URS-12-EN-28-OATE], for which the inhibition of growth at 10 µM came out at 4% in the assay on THP-1, 0% in the assay on COLO 205, 0% in the assay with A549 and 1% in the assay with PC-3.

As to `C[C@H]1[C@H](C)CC[C@]2(C(=O)OCCCCCBr)CC[C@]3(C)C(=CC[C@@H]4[C@@]5(C)CC[C@H](O)C(C)(C)[C@@H]5CC[C@]43C)[C@H]12` [BROMOPENTYL-3BETA-HYDROXY-URS-12-EN-28-OATE], the inhibition of growth at 10 µM in the assay on THP-1 stood at 10%; in the assay on COLO 205, 1%; in the assay on A549, 7%; in the assay with PC-3, 6%.

`C[C@H]1[C@H](C)CC[C@]2(C(=O)OCCCBr)CC[C@]3(C)C(=CC[C@@H]4[C@@]5(C)CC[C@H](O)C(C)(C)[C@@H]5CC[C@]43C)[C@H]12` [BROMOPROPYL-3BETA-HYDROXY-URS-12-EN-28-OATE]: the inhibition of growth at 10 µM stood at 68% in the assay with THP-1, 10% with COLO 205, 9% in the assay on A549 and 0% with PC-3.

Consider `C[C@H]1[C@H](C)CC[C@]2(C(=O)O)CC[C@]3(C)C(=CC[C@@H]4[C@@]5(C)CC[C@H](O)C(C)(C)[C@@H]5CC[C@]43C)[C@H]12` [URSOLIC ACID], for which the inhibition of growth at 10 µM was 65% in the assay on HeLa; 52% in the assay with THP-1; 13% in the assay with IMR-32; 7% in the assay with COLO 205; 71% in the assay on SW-620; 8% in the assay with A549. Besides, the inhibition of growth at 10 µM in the assay with PC-3 was found to be 60%; in the assay on SiHa it was 67%.

Values taken from ChEMBL document CHEMBL3045479, “Synthesis and anti-cancer activity of some novel C-17 analogs of ursolic and oleanolic acids” (2013).
